Experiments:
Acetylcholinesterase [1] = target: T1, Acetylcholinesterase (Bos taurus, UniProt P23795)
T1 sequence (P23795 whole entry): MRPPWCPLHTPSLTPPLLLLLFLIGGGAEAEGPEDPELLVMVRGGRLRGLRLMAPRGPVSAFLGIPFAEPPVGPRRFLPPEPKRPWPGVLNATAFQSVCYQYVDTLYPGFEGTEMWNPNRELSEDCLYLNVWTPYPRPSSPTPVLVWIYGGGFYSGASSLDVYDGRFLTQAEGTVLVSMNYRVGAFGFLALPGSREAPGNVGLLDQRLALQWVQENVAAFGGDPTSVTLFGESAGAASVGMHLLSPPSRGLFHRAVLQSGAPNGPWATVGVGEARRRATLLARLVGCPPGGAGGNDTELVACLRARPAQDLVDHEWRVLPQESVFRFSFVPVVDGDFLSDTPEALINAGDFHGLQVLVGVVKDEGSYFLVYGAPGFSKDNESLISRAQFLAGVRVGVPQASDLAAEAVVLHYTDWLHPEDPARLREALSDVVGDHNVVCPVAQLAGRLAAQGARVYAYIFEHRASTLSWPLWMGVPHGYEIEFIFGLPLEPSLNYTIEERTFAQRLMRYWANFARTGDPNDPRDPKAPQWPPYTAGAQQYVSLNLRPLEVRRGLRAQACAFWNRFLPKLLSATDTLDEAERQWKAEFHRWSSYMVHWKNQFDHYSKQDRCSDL
Description: Inhibition of AchE from bovine erythrocytes

in vitro = conditions: pig, PAMPA
Description: Permeability in BBB by PAMPA using a lipid extract of porcine brain

Butyrylcholinesterase = Butyrylcholinesterase (Equus caballus, UniProt Q9N1N9)
Sequence of Butyrylcholinesterase (Q9N1N9 whole entry): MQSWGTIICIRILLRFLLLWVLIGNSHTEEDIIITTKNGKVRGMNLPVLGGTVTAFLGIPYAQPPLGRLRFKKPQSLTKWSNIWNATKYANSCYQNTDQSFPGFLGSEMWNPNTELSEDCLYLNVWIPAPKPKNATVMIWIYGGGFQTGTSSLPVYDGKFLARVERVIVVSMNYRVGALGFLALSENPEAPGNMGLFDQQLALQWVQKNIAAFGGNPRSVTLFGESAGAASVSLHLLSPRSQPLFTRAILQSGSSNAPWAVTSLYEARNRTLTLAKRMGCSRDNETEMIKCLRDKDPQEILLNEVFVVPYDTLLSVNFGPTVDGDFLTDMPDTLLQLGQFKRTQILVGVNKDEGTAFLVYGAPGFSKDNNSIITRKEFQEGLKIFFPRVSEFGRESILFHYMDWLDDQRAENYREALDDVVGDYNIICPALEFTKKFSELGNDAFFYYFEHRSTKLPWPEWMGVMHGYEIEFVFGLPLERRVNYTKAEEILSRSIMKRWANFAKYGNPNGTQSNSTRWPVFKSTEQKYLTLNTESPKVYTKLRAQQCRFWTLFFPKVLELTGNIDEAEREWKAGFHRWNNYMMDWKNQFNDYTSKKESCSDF
Description: Inhibition of BuChE from horse serum

Cholinesterase = Cholinesterase (Homo sapiens, UniProt P06276)
Sequence of Cholinesterase (P06276 whole entry): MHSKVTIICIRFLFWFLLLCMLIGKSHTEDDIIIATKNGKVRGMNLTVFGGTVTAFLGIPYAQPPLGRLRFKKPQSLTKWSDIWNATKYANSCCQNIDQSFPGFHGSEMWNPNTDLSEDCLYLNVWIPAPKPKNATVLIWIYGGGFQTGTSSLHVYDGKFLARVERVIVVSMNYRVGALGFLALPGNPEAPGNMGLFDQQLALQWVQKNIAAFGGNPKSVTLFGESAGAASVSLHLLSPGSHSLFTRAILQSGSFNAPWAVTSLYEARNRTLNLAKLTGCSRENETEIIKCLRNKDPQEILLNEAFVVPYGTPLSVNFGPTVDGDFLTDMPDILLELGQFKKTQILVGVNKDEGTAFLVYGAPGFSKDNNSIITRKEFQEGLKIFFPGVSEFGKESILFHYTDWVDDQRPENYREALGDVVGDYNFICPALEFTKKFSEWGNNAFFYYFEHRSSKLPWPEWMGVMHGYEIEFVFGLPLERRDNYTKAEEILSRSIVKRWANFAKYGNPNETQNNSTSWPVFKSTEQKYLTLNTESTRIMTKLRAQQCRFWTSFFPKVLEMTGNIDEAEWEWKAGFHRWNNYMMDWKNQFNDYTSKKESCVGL
Description: Inhibition of human BuChE

Acetylcholinesterase [2] = target: Acetylcholinesterase (Homo sapiens, UniProt P22303)
Sequence of Acetylcholinesterase (Homo sapiens, UniProt P22303) (P22303 whole entry): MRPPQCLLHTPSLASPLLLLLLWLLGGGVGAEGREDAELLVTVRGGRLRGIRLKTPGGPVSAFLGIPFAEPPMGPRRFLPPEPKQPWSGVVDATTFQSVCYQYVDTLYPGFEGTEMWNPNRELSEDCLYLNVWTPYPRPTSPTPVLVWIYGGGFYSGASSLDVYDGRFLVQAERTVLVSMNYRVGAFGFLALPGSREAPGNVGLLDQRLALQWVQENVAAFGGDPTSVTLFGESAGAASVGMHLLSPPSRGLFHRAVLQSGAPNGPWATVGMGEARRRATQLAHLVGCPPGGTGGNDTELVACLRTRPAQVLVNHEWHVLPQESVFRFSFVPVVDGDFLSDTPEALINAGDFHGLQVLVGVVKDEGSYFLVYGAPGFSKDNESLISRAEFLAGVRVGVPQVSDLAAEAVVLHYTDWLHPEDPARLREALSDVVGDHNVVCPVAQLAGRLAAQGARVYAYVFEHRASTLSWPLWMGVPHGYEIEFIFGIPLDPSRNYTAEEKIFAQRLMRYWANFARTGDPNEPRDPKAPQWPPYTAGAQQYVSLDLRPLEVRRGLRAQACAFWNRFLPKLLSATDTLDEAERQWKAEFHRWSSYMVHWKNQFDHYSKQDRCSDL

SMILES | IC50 (Acetylcholinesterase [1]) | Papp (in vitro) | IC50 (Butyrylcholinesterase) | IC50 (Cholinesterase) | IC50 (Acetylcholinesterase [2])
COc1ccc2[nH]cc(CCNC(=O)CCCCCNc3c4c(nc5ccccc35)CCCC4)c2c1 | 9 nM | 7.7 ×10⁻⁶ cm/s | 2 nM |  | 
O=C(CCCCCNc1c2c(nc3cc(Cl)cc(Cl)c13)CCCC2)NCCc1c[nH]c2ccccc12 | 3.5 nM | 8.4 ×10⁻⁶ cm/s | 8.2 nM |  | 
O=C(CCCCCCNc1c2c(nc3cc(Cl)cc(Cl)c13)CCCC2)NCCc1c[nH]c2ccccc12 | 2 nM |  | 85 nM | 7.8 nM | 0.008 nM
O=C(CCCCCCNc1c2c(nc3ccccc13)CCCC2)NCCc1c[nH]c2ccccc12 | 1 nM | 9.2 ×10⁻⁶ cm/s | 0.95 nM | 6.8 nM | 0.5 nM
COc1ccc2[nH]cc(CCNC(=O)CCCCCNc3c4c(nc5cc(Cl)ccc35)CCCC4)c2c1 | 12 nM |  | 55 nM |  | 
O=C(CCCCCNc1c2c(nc3ccccc13)CCCC2)NCCc1c[nH]c2ccccc12 | 4 nM | 11 ×10⁻⁶ cm/s | 12 nM |  | 
COc1ccc2[nH]cc(CCNC(=O)CCCCCNc3c4c(nc5cccc(Cl)c35)CCCC4)c2c1 | 25 nM | 8.9 ×10⁻⁶ cm/s | 22 nM |  | 
O=C(CCCCCNc1c2c(nc3cccc(Cl)c13)CCCC2)NCCc1c[nH]c2ccccc12 | 65 nM | 5.2 ×10⁻⁶ cm/s | 15 nM | 23 nM | 0.87 nM
O=C(CCCCCNc1c2c(nc3ccccc13)CCCC2)NCCc1c[nH]c2ccc(O)cc12 | 35 nM | 2 ×10⁻⁶ cm/s | 3.5 nM | 1 nM | 0.45 nM
COc1ccc2[nH]cc(CCNC(=O)CCCCCCNc3c4c(nc5cc(Cl)cc(Cl)c35)CCCC4)c2c1 | 5 nM |  | 100 nM | 25 nM | 0.04 nM
O=C(CCCCCCNc1c2c(nc3cc(Cl)ccc13)CCCC2)NCCc1c[nH]c2ccccc12 | 0.2 nM |  | 8.1 nM | 35 nM | 0.1 nM
COc1ccc2[nH]cc(CCNC(=O)CCCCCCNc3c4c(nc5ccccc35)CCCC4)c2c1 | 2.3 nM | 8.6 ×10⁻⁶ cm/s | 2.5 nM | 3 nM | 0.65 nM
O=C(CCCCCNc1c2c(nc3cc(Cl)ccc13)CCCC2)NCCc1c[nH]c2ccccc12 | 2 nM | 7.7 ×10⁻⁶ cm/s | 5.2 nM |  | 
COc1ccc2[nH]cc(CCNC(C)=O)c2c1 [MELATONIN] | > 100 nM |  | > 100 nM |  | 

From ChEMBL document CHEMBL1147732, “Novel tacrine-melatonin hybrids as dual-acting drugs for Alzheimer disease, with improved acetylcholinesterase inhibitory and antioxidant properties” (J Med Chem, 2006)
